Source: patent publication EP0195841A1, “Quinolinecarboxylic acid derivatives and process for their preparation” (KYORIN PHARMACEUTICAL CO., LTD., priority 1985, dated 1986)
Values after ≈ are worked out from the molar mass of the structure shown.

Assays:
Test in all cases: Antibacterial spectra, MIC by standard method of Japan Society of Chemotherapy
Assay type in all cases: cell-based
[1] = test system: S. aureus IID 670 (Terajima); settings: Staphylococcus aureus, IID670, Gram +, 10^6 cells/ml, read-out: Minimum Inhibitory Concentration
[2] = test system: Yersinia enterocolitica IID 981; settings: 10^6 cells/ml
[3] = test system: Bacteroides fragilis 0558; settings: Gram −, 10^6 cells/ml
[4] = test system: Streptococcus pyogenes IID 692; settings: 10^6 cells/ml
[5] = test system: S. pyogenes IID 689 (S-8); settings: Streptococcus pyogenes, IID689, Gram +, 10^6 cells/ml, read-out: Minimum Inhibitory Concentration
[6] = test system: Bacteroides fragilis GM 7000; settings: 10^6 cells/ml
[7] = test system: Alcaligenes faecalis 0104002; settings: Gram −, 10^6 cells/ml
[8] = test system: Klebsiella pneumoniae KY 6445; settings: 10^6 cells/ml
[9] = test system: Bacteroides fragilis 25285; settings: Gram −, 10^6 cells/ml
[10] = test system: Proteus vulgaris IFO 3167
[11] = test system: Citrobacter freundii IID 976; settings: 10^6 cells/ml
[12] = test system: Shigella sonnei IID 969; settings: 10^6 cells/ml
Experimental: Experiment 1. Antibacterial spectra
Antibacterial activity was determined with the standard method recommended by Japan Society of Chemotherapy.

[13] = test system: P. mirabilis IID 994; settings: 10^6 cells/ml
[14] = test system: Pseudomonas aeruginosa IFO 12689; settings: 10^6 cells/ml
[15] = test system: P. morganii IID 602; settings: 10^6 cells/ml
[16] = test system: Bacillus subtilis PCI 219; settings: 10^6 cells/ml
[17] = test system: Salmonella enteritidis IID 604; settings: Gram −, 10^6 cells/ml
[18] = test system: Pseudomonas aeruginosa V-1; settings: 10^6 cells/ml
[19] = test system: S. faecalis IID 682; settings: 10^6 cells/ml
[20] = test system: Serratia marcescens IID 618; settings: IID618, Gram −, 10^6 cells/ml, read-out: Minimum Inhibitory Concentration
[21] = test system: S. epidermidis IID 866; settings: 10^6 cells/ml
[22] = test system: E. coli NIHJ JC-2; settings: E. coli NIHJ JC-2, Gram −, 10^6 cells/ml
[23] = test system: S. pneumoniae 2054; settings: Streptococcus pneumoniae, Gram +, 10^6 cells/ml, read-out: Minimum Inhibitory Concentration
[24] = test system: Acinetobacter anitratus IID 876; settings: Acinetobacter calcoaceticus, IID876, Gram −, 10^6 cells/ml, read-out: Minimum Inhibitory Concentration
[25] = test system: Staphylococcus aureus 209 P; settings: Gram +, 10^6 cells/ml
[26] = test system: E. coli ATCC 10536; settings: 10^6 cells/ml
[27] = test system: Enterobacter cloacae IID 977; settings: 10^6 cells/ml
[28] = read-out: Minimum Inhibitory Concentration

Structure (SMILES): CN1CCN(c2c(F)cc3c(=O)c(C(=O)O)cn(C4CC4)c3c2Cl)CC1 [Example 27, 8-Chloro-1-cyclopropyl-6-fluoro-1,4-dihydro-7-(4-methyl-l-piperazinyl)4-oxoquinoline-3-carboxylic acid]
- MIC [1]: 0.1 µg/mL (≈ 0.263 µM)
- ratio of activity per that of Ciprofloxacin (bracketed number) ([2]; Gram −): 1
- MIC ([2]; IID981, Gram −, read-out: Minimum Inhibitory Concentration): 0.05 µg/mL (≈ 0.132 µM)
- ratio of activity per that of Ciprofloxacin (bracketed number) [3]: 32
- MIC [3, 28]: 0.1 µg/mL (≈ 0.263 µM)
- ratio of activity per that of Ciprofloxacin (bracketed number) ([4]; Gram +): 4
- MIC ([4]; IID692, Gram +, read-out: Minimum Inhibitory Concentration): 0.2 µg/mL (≈ 0.527 µM)
- MIC [5]: 0.2 µg/mL (≈ 0.527 µM)
- MIC ([6]; GM7000, Gram −, read-out: Minimum Inhibitory Concentration): 0.2 µg/mL (≈ 0.527 µM)
- ratio of activity per that of Ciprofloxacin (bracketed number) ([6]; Gram −): 16
- ratio of activity per that of Ciprofloxacin (bracketed number) [7]: 1
- MIC [7, 28]: 0.39 µg/mL (≈ 1.03 µM)
- ratio of activity per that of Ciprofloxacin (bracketed number) ([8]; Gram −): 0.5
- MIC ([8]; KY6445, Gram −, read-out: Minimum Inhibitory Concentration): 0.025 µg/mL (≈ 0.0658 µM)
- ratio of activity per that of Ciprofloxacin (bracketed number) [9]: 32
- MIC [9, 28]: 0.1 µg/mL (≈ 0.263 µM)
- ratio of activity per that of Ciprofloxacin (bracketed number) ([10]; Proteus vulgaris IFO 3167, Gram −, 10^6 cells/ml): 0.5
- MIC ([10]; Proteus vulgaris, IFO3167, read-out: Minimum Inhibitory Concentration): 0.0125 µg/mL (≈ 0.0329 µM)
- ratio of activity per that of Ciprofloxacin (bracketed number) ([11]; Gram −): 0.25
- MIC ([11]; IID976, Gram −, read-out: Minimum Inhibitory Concentration): 0.025 µg/mL (≈ 0.0658 µM)
- ratio of activity per that of Ciprofloxacin (bracketed number) ([12]; Gram −): 0.5
- MIC ([12]; IID969, Gram −, read-out: Minimum Inhibitory Concentration): 0.0125 µg/mL (≈ 0.0329 µM)
- ratio of activity per that of Ciprofloxacin (bracketed number) ([13]; Gram −): 0.5
- MIC ([13]; Proteus mirabilis, IID994, Gram −, read-out: Minimum Inhibitory Concentration): 0.025 µg/mL (≈ 0.0658 µM)
- ratio of activity per that of Ciprofloxacin (bracketed number) ([14]; Gram −): 0.25
- MIC ([14]; IFO12689, Gram −, read-out: Minimum Inhibitory Concentration): 1.56 µg/mL (≈ 4.11 µM)
- ratio of activity per that of Ciprofloxacin (bracketed number) ([15]; Gram −): 1
- MIC ([15]; Morganella morganii, IID602, Gram −, read-out: Minimum Inhibitory Concentration): 0.05 µg/mL (≈ 0.132 µM)
- ratio of activity per that of Ciprofloxacin (bracketed number) ([16]; Gram +): 4
- MIC ([16]; PCI219, Gram +, read-out: Minimum Inhibitory Concentration): 0.0125 µg/mL (≈ 0.0329 µM)
- ratio of activity per that of Ciprofloxacin (bracketed number) [17]: 0.5
- MIC ([17]; Salmonella enterica, read-out: Minimum Inhibitory Concentration): 0.05 µg/mL (≈ 0.132 µM)
- ratio of activity per that of Ciprofloxacin (bracketed number) ([18]; Gram −): 1
- MIC ([18]; V1, Gram −, read-out: Minimum Inhibitory Concentration): 0.2 µg/mL (≈ 0.527 µM)
- MIC ([19]; Enterococcus faecalis, IID682, Gram +, read-out: Minimum Inhibitory Concentration): 0.39 µg/mL (≈ 1.03 µM)
- ratio of activity per that of Ciprofloxacin (bracketed number) ([19]; Gram +): 2
- MIC [20]: 0.05 µg/mL (≈ 0.132 µM)
- ratio of activity per that of Ciprofloxacin (bracketed number) ([21]; Gram +): 4
- MIC ([21]; Staphylococcus epidermidis, IID866, Gram +, read-out: Minimum Inhibitory Concentration): 0.1 µg/mL (≈ 0.263 µM)
- ratio of activity per that of Ciprofloxacin (bracketed number) [22]: 1
- MIC ([22]; Escherichia coli, NIHJJC2, read-out: Minimum Inhibitory Concentration): ≤ 6 ng/mL
- MIC [23]: 0.39 µg/mL (≈ 1.03 µM)
- MIC [24]: 0.025 µg/mL (≈ 0.0658 µM)
- ratio of activity per that of Ciprofloxacin (bracketed number) [25]: 4
- MIC [25, 28]: 0.1 µg/mL (≈ 0.263 µM)
- MIC ([26]; Escherichia coli, ATCC10536, Gram −, read-out: Minimum Inhibitory Concentration): 0.0125 µg/mL (≈ 0.0329 µM)
- ratio of activity per that of Ciprofloxacin (bracketed number) ([26]; Gram −): 1
- ratio of activity per that of Ciprofloxacin (bracketed number) ([27]; Gram −): 1
- MIC ([27]; IID977, Gram −, read-out: Minimum Inhibitory Concentration): 0.05 µg/mL (≈ 0.132 µM)
